From ChEMBL document CHEMBL1201862, “PubChem BioAssay data set” (2004)
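48-hour exposure; five concentrations; linearly interpolated endpoints. Here, GI50 denotes the concentration required for 50% inhibition of growth.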 The source made the active and inactive calls. No stated cut-off is given here; in the data, active = GI50 up to about 1.1 µM and inactive = higher.

Columns and labels:
Test in all cases: DTP human tumour cell line panel, 48 h
M14 = system: M14
PC-3 = system: PC-3
EKVX = system: EKVX
786-0 = system: 786-0
MCF7 = system: MCF7
MDA-N = system: MDA-N
SF-268 = system: SF-268
SK-MEL-2 = system: SK-MEL-2
NCI-H23 = system: NCI-H23
MDA-MB-435 = system: MDA-MB-435
LOX IMVI = system: LOX IMVI
SNB-19 = system: SNB-19
UO-31 = system: UO-31
MOLT-4 = system: MOLT-4
SR = system: SR
NCI-H522 = system: NCI-H522
NCI/ADR-RES = system: NCI/ADR-RES
SNB-75 = system: SNB-75
U-251 = system: U-251
ACHN = system: ACHN

SMILES	GI50 (M14)	GI50 (PC-3)	GI50 (EKVX)	GI50 (786-0)	GI50 (MCF7)	GI50 (MDA-N)	GI50 (SF-268)	GI50 (SK-MEL-2)	GI50 (NCI-H23)	GI50 (MDA-MB-435)	GI50 (LOX IMVI)	GI50 (SNB-19)	GI50 (UO-31)	GI50 (MOLT-4)	GI50 (SR)	GI50 (NCI-H522)	GI50 (NCI/ADR-RES)	GI50 (SNB-75)	GI50 (U-251)	GI50 (ACHN)
CCCCCCCC(=O)OC[n+]1cccc(-c2c(COC(=O)NC(C)C)c(COC(=O)NC(C)C)c3n2CCC3)c1	98.2 µM (inactive)	> 88.3 µM (inactive)	> 100 µM (inactive)	40 µM (inactive)	45.6 µM (inactive)	> 100 µM (inactive)	> 55.8 µM (inactive)	> 100 µM (inactive)	61.7 µM (inactive)	> 100 µM (inactive)	60.3 µM (inactive)	> 100 µM (inactive)	62.8 µM (inactive)	20.1 µM (inactive)	12.8 µM (inactive)	40.4 µM (inactive)	> 100 µM (inactive)	> 78 µM (inactive)	> 72.8 µM (inactive)	34 µM (inactive)
COc1ccc(Cc2nc3cc(Cl)ccc3o2)cc1	32.2 µM (inactive)	32.3 µM (inactive)	27.2 µM (inactive)	33.3 µM (inactive)	27.9 µM (inactive)	35 µM (inactive)	45.4 µM (inactive)	23.3 µM (inactive)	29.2 µM (inactive)	22.1 µM (inactive)	23.5 µM (inactive)	42.2 µM (inactive)	33.3 µM (inactive)	18.8 µM (inactive)	23.7 µM (inactive)	21.2 µM (inactive)	24.2 µM (inactive)	13.1 µM (inactive)	27.1 µM (inactive)	59 µM (inactive)
O=C1OC[C@H]2[C@@H]1[C@H]1O[C@@H]2C2=C(CCC2)C1=O	> 100 µM (inactive)	> 100 µM (inactive)	> 100 µM (inactive)	> 100 µM (inactive)	> 100 µM (inactive)	> 100 µM (inactive)	> 100 µM (inactive)	> 100 µM (inactive)	> 100 µM (inactive)	> 100 µM (inactive)	> 100 µM (inactive)	> 100 µM (inactive)	> 100 µM (inactive)	1.11 µM (active)	> 100 µM (inactive)	> 100 µM (inactive)	> 100 µM (inactive)	> 100 µM (inactive)	> 100 µM (inactive)	> 100 µM (inactive)
COC(=O)C(=O)C(C(=O)C(=O)Nc1ccc(C)c(C)c1)c1nc2ccc([N+](=O)[O-])cc2nc1O (stereo not given)	> 100 µM (inactive)	> 100 µM (inactive)	99.5 µM (inactive)	> 100 µM (inactive)	> 100 µM (inactive)	> 100 µM (inactive)	> 100 µM (inactive)	> 100 µM (inactive)	> 100 µM (inactive)	> 100 µM (inactive)	> 100 µM (inactive)	18.5 µM (inactive)	68.9 µM (inactive)	> 100 µM (inactive)	> 100 µM (inactive)	48.4 µM (inactive)	> 100 µM (inactive)	> 100 µM (inactive)	> 100 µM (inactive)	> 100 µM (inactive)
Oc1c(CN2CCOCC2)ccc(CN2CCOCC2)c1O	22.9 µM (inactive)	48 µM (inactive)	50.8 µM (inactive)	37.5 µM (inactive)	35.2 µM (inactive)	50.2 µM (inactive)	30.9 µM (inactive)	29 µM (inactive)	36.6 µM (inactive)	81.7 µM (inactive)	39 µM (inactive)	43.3 µM (inactive)	18 µM (inactive)	24.2 µM (inactive)	24.5 µM (inactive)	29.6 µM (inactive)	30.1 µM (inactive)	15.1 µM (inactive)	40.1 µM (inactive)	30.9 µM (inactive)
CC1CN=C(Nc2ccccc2)S1 (stereo not given)	> 100 µM (inactive)	> 100 µM (inactive)	> 100 µM (inactive)	> 100 µM (inactive)	> 100 µM (inactive)	> 100 µM (inactive)	> 100 µM (inactive)	> 100 µM (inactive)	> 100 µM (inactive)	> 100 µM (inactive)	> 100 µM (inactive)	> 100 µM (inactive)	56.8 µM (inactive)	> 100 µM (inactive)	> 100 µM (inactive)	> 100 µM (inactive)	> 100 µM (inactive)	> 100 µM (inactive)	> 100 µM (inactive)	> 100 µM (inactive)
Clc1ccc(C(c2ccc(Cl)cc2)N2CCNCC2)cc1	1.73 µM (inactive)	2.45 µM (inactive)	3.02 µM (inactive)	1.77 µM (inactive)	1.91 µM (inactive)	1.89 µM (inactive)	4.95 µM (inactive)	1.85 µM (inactive)	5.24 µM (inactive)	1.93 µM (inactive)	1.92 µM (inactive)	5.13 µM (inactive)	2.02 µM (inactive)	1.87 µM (inactive)	1.75 µM (inactive)	1.78 µM (inactive)	3.1 µM (inactive)	2.34 µM (inactive)	2.02 µM (inactive)	2.16 µM (inactive)
O=C1CC2OCC=C3CN4CCC5(C(=O)O)C(N1)C2C3CC45 (stereo not given)	> 100 µM (inactive)	> 100 µM (inactive)	> 100 µM (inactive)	> 100 µM (inactive)	> 100 µM (inactive)	> 100 µM (inactive)	> 100 µM (inactive)	> 100 µM (inactive)	> 100 µM (inactive)	> 100 µM (inactive)	> 100 µM (inactive)	> 100 µM (inactive)	> 100 µM (inactive)	> 100 µM (inactive)	> 100 µM (inactive)	> 100 µM (inactive)	> 100 µM (inactive)	> 100 µM (inactive)	> 100 µM (inactive)	> 100 µM (inactive)
O[C@]12C=C(c3nccc4c3[nH]c3ccccc34)[C@@H]3CCN(CCCC/C=C\CC1)C[C@@]31CC3/C=C\CCCCN3[C@H]12 (stereo not given in full)	0.371 µM (active)	0.351 µM (active)	0.441 µM (active)	0.13 µM (active)	0.478 µM (active)	0.367 µM (active)	0.533 µM (active)	0.244 µM (active)	0.213 µM (active)	0.366 µM (active)	0.275 µM (active)	1.23 µM (inactive)	0.199 µM (active)	0.138 µM (active)	0.311 µM (active)	0.263 µM (active)	0.514 µM (active)	0.242 µM (active)	0.355 µM (active)	0.299 µM (active)
CO[C@@H]1C[C@H](OC(N)=O)[C@@H]2C=C[C@@H]3/C=C(C)/C=C/[C@@H](C)[C@H](/C(C)=C/[C@@H](C)NC(C)=O)OC(=O)/C=C/C=C(C)\C=C\[C@]3(C)[C@@H]2C1 [SUPERSTOLIDE B]	< 0.005 µM (active)	< 0.005 µM (active)	0.0986 µM (active)	< 0.005 µM (active)	0.00693 µM (active)	< 0.005 µM (active)	0.0724 µM (active)	0.319 µM (active)	< 0.005 µM (active)	< 0.005 µM (active)	< 0.005 µM (active)	0.0306 µM (active)	< 0.005 µM (active)	0.31 µM (active)	< 0.005 µM (active)	< 0.005 µM (active)	< 0.005 µM (active)	< 0.005 µM (active)	< 0.005 µM (active)	< 0.005 µM (active)
CC(=O)N1C(CCc2ccccc2)CC(C)(C=O)C1Cc1ccc(O[Si](C(C)C)(C(C)C)C(C)C)cc1 (stereo not given)	1.85 µM (inactive)	3.18 µM (inactive)	4.75 µM (inactive)	2.38 µM (inactive)	2.05 µM (inactive)	2.39 µM (inactive)	4.19 µM (inactive)	3.48 µM (inactive)	5.53 µM (inactive)	2.63 µM (inactive)	1.94 µM (inactive)	4.83 µM (inactive)	3.21 µM (inactive)	1.06 µM (active)	2.09 µM (inactive)	2.15 µM (inactive)	8.81 µM (inactive)	3.92 µM (inactive)	3.12 µM (inactive)	6.89 µM (inactive)
NC(=S)Nc1nc(=S)[nH]c2c1SC1=N/C(=C\c3ccco3)C(=O)N12	> 60.7 µM (inactive)	> 100 µM (inactive)	59 µM (inactive)	> 100 µM (inactive)	29.1 µM (inactive)	> 100 µM (inactive)	> 100 µM (inactive)	> 83.4 µM (inactive)	> 100 µM (inactive)	> 100 µM (inactive)	40.6 µM (inactive)	> 100 µM (inactive)	> 100 µM (inactive)	44.1 µM (inactive)	21.1 µM (inactive)	27 µM (inactive)	> 100 µM (inactive)	> 57.1 µM (inactive)	> 100 µM (inactive)	> 100 µM (inactive)
Nc1nc(SCC(=O)O)nc(O)c1N	> 100 µM (inactive)	> 100 µM (inactive)	> 100 µM (inactive)	41.6 µM (inactive)	> 100 µM (inactive)	33.2 µM (inactive)	> 100 µM (inactive)	> 100 µM (inactive)	> 100 µM (inactive)	32.3 µM (inactive)	20.9 µM (inactive)	> 100 µM (inactive)	> 100 µM (inactive)	37.6 µM (inactive)	22.6 µM (inactive)	> 100 µM (inactive)	> 100 µM (inactive)	50.2 µM (inactive)	> 100 µM (inactive)	> 100 µM (inactive)
